The values that follow come from patent publication US9682013B2, “Pharmaceutical compositions comprising human antibodies to PCSK9” (SANOFI BIOTECHNOLOGY, priority 2011, dated 2017).

The test system of data set [1] is patients with an elevated LDL-C (≧100 mg/dL or 2.59 mmol/L) treated with a stable dose of atorvastatin 10 mg. Briefly: Study 2: randomized, double-blind, placebo-controlled 8-week study of 316P 150 mg E2W with atorvastatin 10 mg or 80 mg. It counts as in vivo, human. As for the experimental part:
This was a randomized, double-blind, 3-parallel-groups, placebo-controlled, fixed dose/dose regimen, multicenter, 8-week study in subjects with primary hypercholesterolemia, aged 18-75 years. One aim of this study was to assess the efficacy and safety of 316P in patients with an elevated LDL-C (≧100 mg/dL or 2.59 mmol/L) treated with a stable dose of atorvastatin 10 mg.
During the screening period, patients had to be stabilized to atorvastatin 10 mg for at least 6 weeks, if they are not already. Then, after 1 additional screening week, patients were centrally randomized via IVRS/IWRS in a 1:1:1 ratio to one of the 3 treatment groups (placebo for 316P+atorvastatin 80 mg, 316P 150 mg E2W+atorvastatin 80 mg, 316P 150 mg E2W+atorvastatin 10 mg) and treated in a double-blind manner for approximately 8 weeks. 316P was administered every 2 weeks on site trough subcutaneous injection and atorvastatin was administered orally once daily in the evening at home. The double-blind treatment period was then followed by an 8-week follow-up period.
Inclusion criteria: • Patients (patients receiving a lipid lowering treatment other than atorvastatin/or not at stable dose of atorvastatin 10 mg for at least 6 weeks prior to screening period, or drug naive patients) with primary hypercholesterolemia likely to have low-density lipoprotein cholesterol (LDL-C)≧100 mg/dL (≧2.59 mmol/L) at the end of the run-in period on atorvastatin therapy (Week-1). • OR • Patients with primary hypercholesterolemia treated with stable dose of atorvastatin 10 mg for at least 6 weeks prior to screening period and likely to have low-density lipoprotein cholesterol (LDL-C)≧100 mg/dL (≧2.59 mmol/L) at the screening visit (Week-1).
Duration of Study Period Per Subject:
• Arm 1: The first group of patients receives one subcutaneous injection of 1 mL of antibody 316P, administered in the abdomen every two weeks, with a dose regimen at 150 mg, for a double-blind treatment period of 8 weeks; • Atorvastatin is administered once per day at a stable dose of 10 mg as background therapy. • Atorvastatin is administered at a dose of 80 mg once during the double-blind treatment period of 8 weeks. • Arm 2: The second group of patients receives one subcutaneous injection of 1 mL of a placebo solution, administered in the abdomen every two weeks, with a dose regimen at 150 mg, for a double-blind treatment period of 8 weeks; • Atorvastatin is administered once per day at a stable dose of 10 mg as background therapy. • Atorvastatin is administered at a dose of 80 mg (2 over-encapsulated atorvastatin 40 mg tablets) once during the double-blind treatment period of 8 weeks. • Arm 3: The third group of patients receives one subcutaneous injection of 1 mL of antibody 316P, administered in the abdomen every two weeks, with a dose regimen at 150 mg, for a double-blind treatment period of 8 weeks; • Atorvastatin is administered once per day at a stable dose of 10 mg as background therapy. • Atorvastatin is administered at a dose of 10 mg (1 over-encapsulated atorvastatin 10 mg tablet+1 matching placebo tablet) once during the double-blind treatment period of 8 weeks. Primary and Key Secondary Endpoints Primary Endpoints
The primary efficacy variable is the percent change in calculated LDL-C from baseline to Week 8, which is defined as: 100×(calculated LDL-C value at Week 8-calculated LDL-C value at baseline)/calculated LDL-C value at baseline.
In case of unavailable calculated LDL-C value at Week 8 as defined above, then the last calculated LDL-C value measured during the efficacy period and before the Week 8 time window was used to impute the missing Week 8 calculated LDL-C value (Last Observation Carried Forward [LOCF] procedure). […]

The test system of data set [2] is patients with Heterozygous Familial Hypercholesterolemia (HeFH) or other forms of primary hypercholesteremia (nonFH). Briefly: Study 3: randomized, placebo-controlled, multiple ascending dose trial of 316P in HeFH and nonFH. It counts as in vivo, human. As to conditions: for mean % reduction in LDL-C on day 57: on top of statins, combined FH and nonFH populations. The source says: This is a randomized, double-blind, placebo-controlled, multiple ascending dose, multicenter clinical trial in subjects with primary hypercholesterolemia.
The objective of this study was to determine whether a fully human monoclonal antibody to PCSK9 (316P) is effective and safe as either a primary or adjunctive agent to lower LDL-C in patients with Heterozygous Familial Hypercholesterolemia (HeFH) or other forms of primary hypercholesteremia (nonFH). 61 adults with either documented HeFH (n=21) or nonFH (n=30), on diet plus stable atorvastatin therapy (atorvaRx) or nonFH (n=10) on diet alone enrolled in this clinical trial. Subjects on stable atorvastatin therapy had LDL-C≧2.6 mmol/L and those on diet alone had LDL-C≧3.4 mmol/L. 316P at doses of 50, 100 and 150 mg was administered subcutaneously (sc) at 1, 29 and 43 days. The primary endpoint was the incidence and severity of treatment emergent adverse events (TEAE). The primary efficacy endpoint was percent and absolute change in serum LDL-C from baseline to each visit. Additional endpoints included apolipoprotein (apo) B, total cholesterol, HDL-C, VLDL-C, and the ratio of apoB to apoA1. 109 patients were screened, and 61 patients were randomized (14 placebo, 47 316P) with 100% completing 148+/−7 days of treatment and follow up. Compared to the nonFH cohort, the FH group was younger (mean 40 vs. 52 yrs), had more males (81% vs. 57%) and was on higher doses of atorvastatin (52% on 40 mg vs. 3%). Baseline LDL-C was 3.45, 2.88 and 4.46 mmol/L in the FH, nonFH atorvaRx and nonFH diet only groups, respectively.

Setting [3] is: 316P 150 mg with atorvastatin, 8 weeks, consistent with LDL-C decrease.
[4] abbreviates: 316P 150 mg+atorvastatin 80 mg vs placebo+atorvastatin 80 mg, p<0.0001.

Take “316P: fully human anti-PCSK9 antibody comprising a HCVR as shown in SEQ ID NO: 90 and LCVR as shown in SEQ ID NO: 92 [Antibody 316P]”: the safety signal entry in data set [1] (150 mg E2W, 8 weeks) was “No particular safety signal was noted”. In data set [1] (150 mg E2W, 8 weeks of treatment, all treatment groups), the tolerability result is “well tolerated”. Also, in data set [1] (316P 150 mg co-administered with atorvastatin 10 mg or 80 mg), the “HDL-C” value was “trend of increase”. Moreover, the “HDL-C percent change from baseline, LS mean” value in data set [1] (316P 150 mg co-administered with atorvastatin 10 mg, 8 weeks) is recorded as “+2.6%”. In data set [1] (316P 150 mg co-administered with atorvastatin 80 mg, 8 weeks), the “HDL-C percent change from baseline, LS mean” value was “+5.8%”. In addition, in data set [1] (setting [3]), the “Apo-B/ApoA-1 ratio” value is reported as “Consistent results”, the “ApoB” value is on record as “Consistent results”, the “Total-C” value is “Consistent results” and the “non HDL-C” value is given as “Consistent results”. For the same substance, the “median reduction from baseline in LDL-C at 8 weeks” value in data set [1] (316P 150 mg+atorvastatin 10 mg group) is recorded as −70.4%. In data set [1] (316P 150 mg+atorvastatin 80 mg group), the “median reduction from baseline in LDL-C at 8 weeks” value was −70.6%. Besides, in data set [1] (setting [4]), the “LS mean difference in percent change from baseline in LDL-C at 8 weeks” value is reported as −55.8% and the “effect size estimate, rank-based analysis of covariance, percent change in LDL-C at 8 weeks” value is listed as −54.5%. In data set [1] (all treatment groups), the troponin levels result is recorded as “no change”. For the same substance, in data set [2] (50 mg sc at days 1, 29 and 43), the “mean % reduction in LDL-C on day 57” value stood at 35.6%. For the same substance, in data set [2] (100 mg sc at days 1, 29 and 43), the “mean % reduction in LDL-C on day 57” value stood at 50.2%. Moreover, the “mean % reduction in LDL-C on day 57” value in data set [2] (150 mg sc at days 1, 29 and 43) is on record as 57.5%. In data set [2] (50, 100 and 150 mg sc), the “HDL-C” value is reported as “Favourable changes”, the “apoA1” value is “Favourable changes”, the “liver function testing or other laboratory parameters” value was “No drug-related adverse effects” and the serious adverse events result is recorded as “No serious adverse events”. In addition, in data set [2] (50, 100 and 150 mg sc), the tolerability result is given as “generally well-tolerated”. Moreover, in data set [2] (no statistical analysis performed), the “response between FH and nonFH or those on or not on statin therapy” value is given as “did not appear to be differences in response”.
